Results on 31 compounds are retold here after US10513493B2, “Cyclopropylamines as LSD1 inhibitors” (Incyte Corporation, priority 2014, dated 2019).

Structures are written as SMILES.

The assay addresses LSD-1 enzyme (Homo sapiens (Human), UniProt O60341). Description: LANCE LSD1/KDM1A demethylase assay (LSD1 histone demethylase biochemical assay). The following applies: 1 nM LSD-1 enzyme, 1 hour preincubation at 25° C., 0.4 μM Biotin-labeled Histone H3 peptide substrate. As to the method: Example A: LSD1 histone demethylase biochemical assay
LANCE LSD1/KDM1A demethylase assay—10 μL of 1 nM LSD-1 enzyme (ENZO BML-SE544-0050) in the assay buffer (50 mM Tris, pH 7.5, 0.01% Tween-20, 25 mM NaCl, 5 mM DTT) were preincubated for 1 hour at 25° C. with 0.8 μL compound/DMSO dotted in black 384 well polystyrene plates. Reactions were started by addition of 10 μL of assay buffer containing 0.4 μM Biotin-labeled Histone H3 peptide substrate: ART-K(Me1)-[…]-GGK(Biotin) SEQ ID NO: 1 (AnaSpec 64355) and incubated for 1 hour at 25° C. Reactions were stopped by addition of 10 μL 1× LANCE Detection Buffer (PerkinElmer CR97-100) supplemented with 1.5 nM Eu-anti-unmodified H3K4 Antibody (PerkinElmer TRF0404), and 225 nM LANCE Ultra Streptavidin (PerkinElmer TRF102) along with 0.9 mM Tranylcypromine-HCl (Millipore 616431). After stopping the reactions plates were incubated for 30 minutes and read on a PHERAstar FS plate reader (BMG Labtech).
Usually IC50 stands for the midpoint of a concentration-inhibition curve. Low values mean greater potency, high ones weaker potency. Turning to `O=C(O)C1(c2ccc(N3CCC(CN[C@@H]4C[C@H]4c4ccccc4)(Cc4ccc(F)cc4)CC3)cc2)CC1` [Example 22, 1-{4-[4-(4-fluorobenzyl)-4-({[(1R,2S)-2-phenylcyclopropyl]amino}methyl)piperidin-1-yl]phenyl}cyclopropanecarboxylic acid], the IC50 is < 100 nM.
`COCC1(CN[C@@H]2C[C@H]2c2ccccc2)CCN(c2ccnc(C(=O)O)c2)CC1` [Example 23, 4-[4-(methoxymethyl)-4-({[(1R,2S)-2-phenylcyclopropyl]amino}methyl)piperidin-1-yl]pyridine-2-carboxylic acid]: the IC50 is < 100 nM.
With `CC(C)NC(=O)c1ccc(N2CC(CN[C@@H]3C[C@H]3c3ccccc3)C2)c(F)c1F` (relative stereo) [Example 8, 2,3-Difluoro-N-isopropyl-4-(3-{[(trans-2-phenylcyclopropyl)amino]methyl}azetidin-1-yl)benzamide], the IC50 was < 100 nM.
For the compound `Nc1ccnc(N2CCC(N[C@@H]3C[C@H]3c3ccccc3)CC2)n1` [Example 30, 2-(4-{[(1R,2S)-2-phenylcyclopropyl]amino}piperidin-1-yl)pyrimidin-4-amine], the IC50 was < 100 nM.
Take `CC(C)NC(=O)c1c(F)cc(N2CC(CN[C@@H]3C[C@H]3c3ccccc3)C2)cc1F` (relative stereo) [Example 7, 2,6-Difluoro-N-isopropyl-4-(3-{[(trans-2-phenylcyclopropyl)amino]methyl}azetidin-1-yl)benzamide]: the IC50 was < 100 nM.
Then `CC(C)NC(=O)c1cc(F)c(N2CC(CN[C@@H]3C[C@H]3c3ccccc3)C2)cc1Cl` (relative stereo) [Example 9, 2-Chloro-5-fluoro-N-isopropyl-4-(3-{[(trans-2-phenylcyclopropyl)amino]methyl}azetidin-1-yl)benzamide], with < 100 nM.
Regarding `CC(C)NC(=O)c1cc(F)c(N2CC(CN[C@@H]3C[C@H]3c3ccccc3)C2)cc1F` (relative stereo) [Example 3, 2,5-Difluoro-N-isopropyl-4-(3-{[(trans-2-phenylcyclopropyl)amino]methyl}azetidin-1-yl)benzamide], the IC50 was < 100 nM.
With `COc1cc(N2CC(CN[C@@H]3C[C@H]3c3ccccc3)C2)ccc1C(=O)NC(C)C` (relative stereo) [Example 13, N-Isopropyl-2-methoxy-4-(3-{[(trans-2-phenylcyclopropyl)amino]methyl}azetidin-1-yl)benzamide], the IC50 was < 100 nM.
In the case of `CC1(CN[C@@H]2C[C@H]2c2ccccc2)CCN(c2cccc(C(=O)O)n2)CC1` [Example 26, 6-[4-methyl-4-({[(1R,2S)-2-phenylcyclopropyl]amino}methyl)piperidin-1-yl]pyridine-2-carboxylic acid], the IC50 was < 100 nM.
Turning to `CCNC(=O)c1cnc(N2CC(CN[C@@H]3C[C@H]3c3ccccc3)C2)cn1` (relative stereo) [Example 5, N-Ethyl-5-(3-{[(trans-2-phenylcyclopropyl)amino]methyl}azetidin-1-yl)pyrazine-2-carboxamide], the IC50 was < 100 nM.
For `CC(C)NC(=O)c1ccc(N2CC(CN[C@@H]3C[C@H]3c3ccccc3)C2)c(Cl)c1` (relative stereo) [Example 14, 3-Chloro-N-isopropyl-4-(3-{[(trans-2-phenylcyclopropyl)amino]methyl}azetidin-1-yl)benzamide], the IC50 is < 100 nM.
Then `N#CCC1(CN[C@@H]2C[C@H]2c2ccccc2)CCN(c2ncccc2C(F)(F)F)CC1` (relative stereo) [Example 19, {4-{[(trans-2-Phenylcyclopropyl)amino]methyl}-1-[3-(trifluoromethyl)pyridin-2-yl]piperidin-4-yl}acetonitrile], with < 100 nM.
`Nc1ccnc(N2CCC(N[C@H]3C[C@@H]3c3ccccc3)CC2)n1` [Example 31, 2-(4-{[(1S,2R)-2-phenylcyclopropyl]amino}piperidin-1-yl)pyrimidin-4-amine] registered an IC50 of 100 to 500 nM.
With `N#CCC1(CN[C@@H]2C[C@H]2c2ccccc2)CCN(c2cccc(Cl)c2C#N)CC1` (relative stereo) [Example 18, 2-Chloro-6-(4-(cyanomethyl)-4-{[(trans-2-phenylcyclopropyl)amino]methyl}piperidin-1-yl)benzonitrile], the IC50 is < 100 nM.
For `N#Cc1cc(F)c(N2CC(CN[C@@H]3C[C@H]3c3ccccc3)C2)c(F)c1` (relative stereo) [Example 2, 3,5-Difluoro-4-[3-({[trans-2-phenylcyclopropyl]amino}methyl)azetidin-1-yl]benzonitrile], the IC50 was < 100 nM.
In the case of `CC1(CN[C@@H]2C[C@H]2c2ccccc2)CCN(c2ccnc(C(=O)O)c2)CC1` [Example 27, 4-[4-methyl-4-({[(1R,2S)-2-phenylcyclopropyl]amino}methyl)piperidin-1-yl]pyridine-2-carboxylic acid], the half-inhibitory concentration (IC50) was < 100 nM.
Consider `O=C(O)c1cccc(N2CCC(CN[C@@H]3C[C@H]3c3ccccc3)(Cc3ccc(F)cc3)CC2)n1` [Example 20, 6-[4-(4-fluorobenzyl)-4-({[(1R,2S)-2-phenylcyclopropyl]amino}methyl)piperidin-1-yl]pyridine-2-carboxylic acid], for which the IC50 was < 100 nM.
In the case of `O=C(O)c1ccc(N2CCC(CN[C@@H]3C[C@H]3c3ccccc3)(Cc3ccc(F)cc3)CC2)cn1` [Example 21, 5-[4-(4-fluorobenzyl)-4-({[(1R,2S)-2-phenylcyclopropyl]amino}methyl)piperidin-1-yl]pyridine-2-carboxylic acid], the half-maximal inhibitory concentration (IC50) was < 100 nM.
Turning to `CN1CCN(c2cc(N3CC(CN[C@@H]4C[C@H]4c4ccccc4)C3)ncn2)CC1` (relative stereo) [Example 16, N-({1-[6-(4-Methylpiperazin-1-yl)pyrimidin-4-yl]azetidin-3-yl}methyl)-trans-2-phenylcyclopropanamine], the 50% inhibitory concentration (IC50) is < 100 nM.
Then `Cn1cc(N2CC(CN[C@@H]3C[C@H]3c3ccccc3)C2)cn1` (relative stereo) [Example 17, trans-N-{[1-(1-Methyl-1H-pyrazol-4-yl)azetidin-3-yl]methyl}-2-phenylcyclopropanamine], with < 100 nM; and `CNC(=O)c1ccc(N2CCC(C)(CN[C@@H]3C[C@H]3c3ccccc3)CC2)cn1` [Example 29, N-methyl-5-[4-methyl-4-({[(1R,2S)-2-phenylcyclopropyl]amino}methyl)piperidin-1-yl]pyridine-2-carboxamide], with < 100 nM; and `CN(C)C(=O)c1ccc(N2CCC(C)(CN[C@@H]3C[C@H]3c3ccccc3)CC2)cn1` [Example 28, N,N-dimethyl-5-[4-methyl-4-({[(1R,2S)-2-phenylcyclopropyl]amino}methyl)piperidin-1-yl]pyridine-2-carboxamide], with < 100 nM.
Regarding `CC1(CN[C@@H]2C[C@H]2c2ccccc2)CCN(c2ccc(C(=O)O)nc2)CC1` [Example 25, 5-[4-methyl-4-({[(1R,2S)-2-phenylcyclopropyl]amino}methyl)piperidin-1-yl]pyridine-2-carboxylic acid], the IC50 is < 100 nM.
For the compound `Cc1cc(C(=O)NC(C)C)c(F)cc1N1CC(CN[C@@H]2C[C@H]2c2ccccc2)C1` (relative stereo) [Example 12, 2-Fluoro-N-isopropyl-5-methyl-4-(3-{[(trans-2-phenylcyclopropyl)amino]methyl}azetidin-1-yl)benzamide], the IC50 was < 100 nM.
With `CC(C)NC(=O)c1cc(F)c(N2CC(CN[C@@H]3C[C@H]3c3ccccc3)C2)c(F)c1` (relative stereo) [Example 6, 3,5-Difluoro-N-isopropyl-4-(3-{[(trans-2-phenylcyclopropyl)amino]methyl}azetidin-1-yl)benzamide], the IC50 is < 100 nM.
For the compound `N#Cc1ccc(N2CC(CN[C@@H]3C[C@H]3c3ccccc3)C2)c(F)c1` (relative stereo) [Example 1, 3-Fluoro-4-[3-({[trans-2-phenylcyclopropyl]amino}methyl)azetidin-1-yl]benzonitrile], the IC50 is < 100 nM.
With `CC(C)NC(=O)c1ccc(N2CC(CN[C@@H]3C[C@H]3c3ccccc3)C2)c(F)c1` (relative stereo) [Example 10, 3-Fluoro-N-isopropyl-4-(3-{[(trans-2-phenylcyclopropyl)amino]methyl}azetidin-1-yl)benzamide], the IC50 is < 100 nM.
For the compound `Cc1nc(N2CC(CN[C@@H]3C[C@H]3c3ccccc3)C2)ccc1C#N` (relative stereo) [Example 4, 2-Methyl-6-[3-({[trans-2-phenylcyclopropyl]amino}methyl)azetidin-1-yl]nicotinonitrile], the IC50 is < 100 nM.
As for `O=C(NC1(C(F)(F)F)CC1)c1ccc(N2CC(CN[C@@H]3C[C@H]3c3ccccc3)C2)cn1` (relative stereo) [Example 15, 5-(3-{[(trans-2-Phenylcyclopropyl)amino]methyl}azetidin-1-yl)-N-[1-(trifluoromethyl)cyclopropyl]pyridine-2-carboxamide], the IC50 was < 100 nM.
Take `COCC1(CN[C@@H]2C[C@H]2c2ccccc2)CCN(c2cccc(C(=O)O)n2)CC1` [Example 24, 6-[4-(methoxymethyl)-4-({[(1R,2S)-2-phenylcyclopropyl]amino}methyl)piperidin-1-yl]pyridine-2-carboxylic acid]: the IC50 is < 100 nM.
For `CC(C)NC(=O)c1ccc(N2CC(CN[C@@H]3C[C@H]3c3ccccc3)C2)cc1F` (relative stereo) [Example 11, 2-Fluoro-N-isopropyl-4-(3-{[(trans-2-phenylcyclopropyl)amino]methyl}azetidin-1-yl)benzamide], the IC50 was < 100 nM.
